Experimental data from article PMC4501119, “Cholestenoic acid, an endogenous cholesterol metabolite, is a potent γ-secretase modulator” (Molecular Neurodegeneration, 2015).
Where two headings read alike, the source gives them in different places.

Assays:
[1] = test system: Aβ42 in CHO-2B7 cells (CHO cells stably overexpressing APP695); test: Cell-based Aβ sandwich ELISA of conditioned media from CHO-2B7 cells treated 16 h; design: species or system Chinese hamster; conditions: for GSM activity: dose dependent studies; for GSM activity / fold less potent than CA 2a (Aβ42 EC50): CHO-2B7 cells
Experimental: Chinese hamster ovary (CHO) cells stably overexpressing APP695 (CHO-2B7 cells) were grown in Ham’s F-12 medium (Life Technologies) supplemented with 10 % fetal bovine serum and 100 units/ml of penicillin and 100 μg/ml streptomycin. Cells were grown at 37 °C in a humidified atmosphere containing 5 % CO2 in tissue culture plates (Costar). The cells were harvested at confluence and then utilized for biochemical analyses. Compounds were dissolved in dimethyl sulfoxide (DMSO) and screened in CHO-2B7 cells. The cells were incubated for 16 h in the presence of the compound diluted into OptiMEM-reduced serum medium (Life Technologies, Carlsbad, CA, USA) containing 1 % fetal bovine serum.
Monoclonal antibodies to Aβ were generated by the Mayo Clinic Immunology Core facilities (Jacksonville, FL, USA). Ab5 recognizes an epitope in the amino terminus of Aβ (Aβ1-16), recognizes both monomeric and aggregated Aβ, and is human specific. […] Ab 2.1.3 was raised against Aβ35-42 and is specific for Aβx-42. […] Total Aβ level was determined by capture with Ab5 and detected with horseradish peroxidase (HRP)-conjugated 4G8 (a monoclonal antibody against Aβ17-24; Covance, Waltham, MA, USA) with the other Aβ peptides detected with HRP-conjugated Ab5. For the cell-free assay and measuring mouse endogenous Aβ, HRP-conjugated 4G8 was used as the secondary detection antibody. Aβ standards (Bachem, King of Prussia, PA, USA) were prepared by dissolving in hexafluoroisopropanol (HFIP) at 1 mg/ml with sonication, dried under nitrogen, resuspended at 2 mg/ml HFIP, sonicated again and dried under nitrogen. The resulting Aβ was resuspended in 0.01 % ammonium hydroxide, portioned into aliquots in EC buffer, and frozen at −80 °C.

Aβ42 = conditions: cited from earlier work; for GSM activity: endogenous bile acids
[2] = test system: endogenous mouse Aβ (mAβ) in primary neuron-glia cultures; test: Primary mixed neuron-glia culture, endogenous mouse Aβ ELISA; type: cell-based
Experimental: Primary mixed neuron-glia cultures were prepared from postnatal day 0 (P0) C3HBL/6 mouse brains (Harlan Labs). Cerebral cortices were dissected from P0 mouse brains and were dissociated in 2 mg/ml papain (Worthington) and 50 μg/mL DNAse I (Sigma) at 37 °C for 20 min. They were then washed three times in sterile Hank’s balanced salt solution (HBSS) to inactivate the papain and switched to 5 % fetal bovine serume (HyClone) in Neurobasal-A growth media (Gibco), which includes 0.5 mM L-glutamine (Gibco), 0.5 mM GlutaMax (Life Technologies), 0.01 % antibiotic-antimycotic (Gibco), and 0.02 % SM1 supplement (Stemcell). The tissue mixture was then triturated three times using a 5 mL pipette followed by a Pasteur pipette, and strained through a 70 μm cell strainer. The cell mixture was then centrifuged at 200xg for 3 min, and re-suspended in fresh Neurobasal-A media. They were then plated onto poly-D-lysine coated 96well plates at 100,000 cells/well. Cells were maintained in the Neurobasal-A growth media mentioned above without fetal bovine serum (FBS) at 37 °C in a humidified 5 % CO2 chamber.
(§1) Monoclonal antibodies to Aβ were generated by the Mayo Clinic Immunology Core facilities (Jacksonville, FL, USA). Ab5 recognizes an epitope in the amino terminus of Aβ (Aβ1-16), recognizes both monomeric and aggregated Aβ, and is human specific. […] Ab 2.1.3 was raised against Aβ35-42 and is specific for Aβx-42. […] For cell-based screens, Aβ was captured from conditioned medium with either Ab5, Ab38, Ab13.1.1, or Ab2.1.3 (coated at 10-50 μg/ml in EC buffer: 5 mM NaH2PO4-H2O, 20 mM Na2HPO4, 400 mM NaCl, 2.5 mM EDTA-full name, 151.5 μM BSA, 813 μM CHAPS, and 7.7 mM NaN3) on Immulon 4HBX Flat-Bottom Microfilter 96-well plates (Thermo Scientific, Waltham, MA, USA). Total Aβ level was determined by capture with Ab5 and detected with horseradish peroxidase (HRP)-conjugated 4G8 (a monoclonal antibody against Aβ17-24; Covance, Waltham, MA, USA) with the other Aβ peptides detected with HRP-conjugated Ab5. For the cell-free assay and measuring mouse endogenous Aβ, HRP-conjugated 4G8 was used as the secondary detection antibody. Aβ standards (Bachem, King of Prussia, PA, USA) were prepared by dissolving in hexafluoroisopropanol (HFIP) at 1 mg/ml with sonication, dried under nitrogen, resuspended at 2 mg/ml HFIP, sonicated again and dried under nitrogen. The resulting Aβ was resuspended in 0.01 % ammonium hydroxide, portioned into aliquots in EC buffer, and frozen at −80 °C. Following these steps, the Aβ is monomeric, as determined by size-exclusion chromatography.

[3] = test system: brain mAβ42, mAβ38 and total mAβ; test: Brain Aβ levels after intraperitoneal injection in wild type mice; type: in vivo, mouse (C57BL/6 or CF-1); conditions: 30 mg/kg IP, brains harvested after 30 min, 1, 2 and 3 h
Experimental: 25(R)-CA powder was initially dissolved in DMSO (<4.5 % in the final mixture) and then combined with polyethylene glycol (15)-hydroxystearate (Solutol), ethanol, and water at a ratio of (15:10:75). One molar equivalent of sodium hydroxide was added to the mixture. We performed CA intraperitoneal (IP) injections to wild-type mice (C57BL/6 or CF-1). The mice were injected with 25(R)-CA on the right side of the abdomen. The injections have been performed with various time points (30 min, 1 h, 2 h, and 3 h) and with multiple doses (30 mg per kg (mg/kg), 60 mg/kg, 75 mg/kg and 100 mg/kg). The number of each cohort is 6–8. We used 30 mg/kg of CA for the time-course experiments, and for the dose–response experiments the end-point was set at 30 min. The brains and serum are harvested and frozen for brain Aβ extraction.
The mouse brains were harvested at the age of 3 months. The brains were weighed and recorded. The Diethylamine/Sodium Chloride (DEA/NaCl) extraction buffer (0.4 % DEA) was added to each sample and homogenized using a sonicator. The samples were transferred to a poly-carbonate centrifuge tube and spun down at 50,000xg for 30 min at 4 °C. The supernatant was loaded on the vacuum manifold with the appropriate number of HLB Oasis columns. The samples were loaded on the conditioned column, filtered, and eluted using prepared elution buffer (90 % Methanol, 2 % NH4OH). The eluates are concentrated using the Thermo-Savant SpeedVac concentrator for a minimum of 2 h at 55 °C with radiant heat. The concentrated samples are reconstituted in a blocking buffer (0.67 % Bovine serum albumin (BSA)) at the appropriate volume.
Monoclonal antibodies to Aβ were generated by the Mayo Clinic Immunology Core facilities (Jacksonville, FL, USA). […] Total Aβ level was determined by capture with Ab5 and detected with horseradish peroxidase (HRP)-conjugated 4G8 (a monoclonal antibody against Aβ17-24; Covance, Waltham, MA, USA) with the other Aβ peptides detected with HRP-conjugated Ab5. […] Following these steps, the Aβ is monomeric, as determined by size-exclusion chromatography.

γ-secretase = target: T1, γ-secretase (Homo sapiens, UniProt P49768); test: In vitro γ-secretase (broken cell) assay, membranes of H4 neuroglioma cells overexpressing APP695wt, Aβ ELISA; type: biochemical; conditions: vs DMSO control, 2 h incubation
T1 construct: The membrane derived from the H4 neuroglioma cells overexpressing APP695wt were prepared by carbonate extraction; endogenous in cells; host or cells: H4 neuroglioma cells overexpressing APP695wt (membranes, carbonate extraction)
Experimental: Broken cell assays were performed with slight modifications from the previous studies. The membrane derived from the H4 neuroglioma cells overexpressing APP695wt were prepared by carbonate extraction and incubated at 37 °C for 2 h with CA at various concentrations. Aβ levels were quantified by sandwich ELISAs. For Aβ and AICD spectra, the recombinant C100Flag proteins were overexpressed and purified from Escherichia coli BL21 using a HiTrap Q-column (GE Life Science, Little Chalfont, U.K.). The membrane containing γ-secretase was isolated from the CHO S-1 cell line using sodium carbonate (100 mM, pH 11.0). For the in vitro γ-secretase assay, C100Flag recombinant protein at 25 μM was incubated with the membrane (100 μg/mL) in the presence of CA (20 μM) and DMSO in 150 mM sodium citrate buffer (pH 6.8) containing complete protease inhibitor (Roche, Indianapolis, IN) for 2 h at 37 °C.
as §1

[4] = Cricetulus griseus, CHO-2B7, 16 h, lowering Aβ42, CHO-2B7 cells, 16 h, ELISA
[5] = lowering Aβ42, CHO-2B7 cells, 16 h, ELISA
[6] = Cricetulus griseus, lowering Aβ42, CHO-2B7 cells, 16 h, ELISA
[7] = Cricetulus griseus, lowering Aβ42, CHO-2B7 cells, approximate value

CC(CCCC(C)C1CCC2C3C(O)CC4=CC(=O)CCC4(C)C3CCC12C)C(=O)O (stereo not drawn) [7α-OH-4-CA, 7α-hydroxy-4-oxo-cholestenoic acid]
EC50 [1, 4]: 4.15 µM
GSM activity [1]: demonstrated GSM activity

CC(CCCC(C)C1CCC2C3C(O)C=C4CC(O)CCC4(C)C3CCC12C)C(=O)O (stereo not drawn) [7α-OH-CA, 7α-hydroxy-cholestenoic acid]
EC50 [1, 4]: 0.97 µM
GSM activity [1]: demonstrated GSM activity

C[C@@H](CO)CCC[C@@H](C)[C@H]1CC[C@H]2[C@@H]3CC=C4C[C@@H](O)CC[C@]4(C)[C@H]3CC[C@]12C [27-OHC, 27-hydroxycholesterol]
GSM activity [1]: inactive
Aβ42 EC50 [1, 5]: could not be determined

C[C@H](CCC(=O)O)[C@H]1CC[C@H]2[C@@H]3CC[C@@H]4CCCC[C@]4(C)[C@H]3CC[C@]12C [Cmpd 1, 5β-Cholanic acid]
EC50 (Aβ42; decreasing Aβ42): ~5.7 µM
EC50 (Aβ42; decreasing Aβ42, listed as 5β-cholanic acid): 5.7 µM

C[C@H](CCC[C@H](C)C(=O)O)[C@H]1CC[C@H]2[C@@H]3CC=C4C[C@@H](O)CC[C@]4(C)[C@H]3CC[C@]12C [Cmpd 2b, 25-(S)-CA]
fold less potent than CA 2a (Aβ42 EC50) [1]: about 2 fold
EC50 [1, 5]: 0.501 µM

O=C(O)[C@H](CC1CCC1)c1cc(Cl)c(OCC(F)(F)F)c(-c2ccc(C(F)(F)F)cc2)c1 [Cmpd 3, (R)-2-(5-chloro-6-(2,2,2-trifluoroethoxy)-4’-(trifluoromethyl)biphenyl-3-yl)-3-cyclobutylpropanoic acid]
EC50 (Aβ42; GSM activity, ref the previous literature): 0.067 µM

CC(C)CC(c1ccc(Cl)cc1)N1CC[C@@H](CC(=O)O)C[C@H]1c1ccc(C(F)(F)F)cc1 (stereo partly drawn) [Cmpd 4, reference compound]
mAβ38 level ([2]; 1 μM): increased
mAβ42 level ([2]; 1 μM): decreased
EC50 [1, 4]: 0.092 µM
brain Aβ levels [3]: expected Aβ modulation

C[C@H](CCCC(=O)O)[C@H]1CC[C@H]2[C@@H]3CC=C4C[C@@H](O[Si](C)(C)C(C)(C)C)CC[C@]4(C)[C@H]3CC[C@]12C [Cmpd 5]
EC50 [1, 6]: 1.78 µM
EC50 [1, 7]: ~2 µM

C[C@H](CCCC(=O)O)[C@H]1CC[C@H]2[C@@H]3CC=C4C[C@@H](O)CC[C@]4(C)[C@H]3CC[C@]12C [Cmpd 6]
EC50 [1, 6]: 1.96 µM
EC50 [1, 7]: ~2 µM

CC(CCCC(C)C1CCC2C3CC=C4CC(F)CCC4(C)C3CCC12C)C(=O)O (stereo not drawn) [Cmpd 12]
EC50 [1, 5]: 8.91 µM

CC(CCC[C@@H](C)[C@H]1CC[C@H]2[C@@H]3CC=C4CCCC[C@]4(C)[C@H]3CC[C@]12C)C(=O)O (stereo partly drawn) [Cmpd 13, 3-deoxy-CA]
fold less potent than CA 2a (Aβ42 EC50) [1]: approximately 3 fold
EC50 [1, 5]: 0.67 µM

C[C@H](NC(=O)Cc1cc(F)cc(F)c1)C(=O)N[C@H]1N=C(c2ccccc2)c2ccccc2N(C)C1=O [Cmpd E, reference compound]
decrease of total Aβ production (γ-secretase): 77%
decrease of Aβ42 production (γ-secretase; CA at 150 μM): 91%
overall Aβ production [2]: decreased

C[C@H](CCC(=O)O)[C@H]1CC[C@H]2[C@@H]3CC[C@@H]4C[C@H](O)CC[C@]4(C)[C@H]3CC[C@]12C [lithocholic acid]
GSM activity (Aβ42): GSMs

C[C@H](CCC(=O)O)[C@H]1CC[C@H]2[C@@H]3[C@@H](O)C[C@@H]4C[C@H](O)CC[C@]4(C)[C@H]3C[C@H](O)[C@]12C [ursocholic acid]
GSM activity (Aβ42): GSMs
